From US7265129B2, “Anti-infective biaryl compounds” (priority 2002, dated 2007)

Assays:
S. aureus ATCC 27660 = test: MIC, NCCLS broth microdilution, S. aureus MRSA; type: cell-based, Staphylococcus aureus; details: S. aureus ATCC 27660, methicillin resistant strain (MRSA)
How it was run: (§1)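 Following NCCLS guidance, in vitro activity is measured as MIC with the microtiter broth microdilution reference method. For yeast, the procedure recommended in the 1995 Manual of Clinical Microbiology applies.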

E. faecium ATCC 51559 = test: MIC, E. faecium VRE; type: cell-based, Enterococcus faccium; details: Table C; E. faecium ATCC 51559, vancomycin resistant strain (VRE)
Protocol: (§2) Compounds according to this invention were screened for their in vitro activities against selected species of bacteria and fungi. The minimal inhibition concentration (MIC) of these compounds was determined using the National Committee for Clinical Laboratory Standards (NCCLS) broth microdilution assay in microtiter plates, as set forth in: (1) the guidelines of the National Committee for Clinical Laboratory Standards (NCCLS) Document M7-A4 (NCCLS, 1997); (2) the guidelines of the National Committee for Clinical Laboratory Standards (NCCLS) Document M11-A4 (NCCLS, 1997); and (3) the guidelines and reference method of the National Committee for Clinical Laboratory Standards (NCCLS) Document M27-T (NCCLS, 1995). For antifungal assays, the method recommended in Murray, P R., 1995 Manual of Clinical Microbiology (ASM Press, Washington, D.C.), was employed.
(§3) Additionally, some compounds were screened against Enterococcus faccium (ATCC 51559, a vancomycin resistant strain (VRE)), Staphylococcus epidermidis (ATCC 12228), Streptococcus pneumoniae (ATCC 51422, a penicillin resistant strain (PRSP)), and/or Streptococcus pyogenes (ATCC 49399).

B. cereus ATCC 11778 = test: MIC, NCCLS broth microdilution, B. cereus; type: cell-based, Bacillus cereus
How it was run: as §1

[1] = system: S. epidermidis ATCC 12228; test: MIC, S. epidermidis; type: cell-based, Staphylococcus epidermidis; details: Table C
Protocol: as §2, §3

E. faecalis ATCC 29212 = test: MIC, NCCLS broth microdilution, E. faecalis; type: cell-based, Enterococcus faecalis
How it was run: as §1

[2] = MIC, Table C (organism not given); type: cell-based
Protocol: as §2, §3

C. albicans ATCC 38247 = test: MIC, antifungal assay, C. albicans; type: cell-based, Candida albicans
How it was run: as §1

S. aureus ATCC 33591 = test: MIC, NCCLS broth microdilution, S. aureus ATCC 33591; type: cell-based, Staphylococcus aureus
How it was run: as §1

S. aureus ATCC 13709 = test: MIC, NCCLS broth microdilution, S. aureus MSSA; type: cell-based, Staphylococcus aureus; details: S. aureus ATCC 13709, methicillin sensitive strain (MSSA)
How it was run: as §1

S. pneumoniae ATCC 49619 = test: MIC, NCCLS broth microdilution, S. pneumoniae; type: cell-based, Streptococcus pneumoniae
How it was run: as §1

S. pyogenes ATCC 4399 = test: MIC, S. pyogenes; type: cell-based, Streptococcus pyogenes; details: Table C
Protocol: as §2, §3

S. pneumoniae ATCC 51422 = test: MIC, S. pneumoniae PRSP; type: cell-based, Streptococcus pneumoniae; details: Table C; S. pneumoniae ATCC 51422, penicillin resistant strain (PRSP)
Protocol: as §2, §3

Structure (SMILES) | Minimum Inhibitory Concentration (MIC), organism E (S. aureus ATCC 27660) | Minimum Inhibitory Concentration (MIC), organism A (E. faecium ATCC 51559) | Minimum Inhibitory Concentration (MIC), organism A (B. cereus ATCC 11778) | Minimum Inhibitory Concentration (MIC), organism B [1] | Minimum Inhibitory Concentration (MIC), organism C (E. faecalis ATCC 29212) | Minimum Inhibitory Concentration (MIC), organism E [2] | Minimum Inhibitory Concentration (MIC), organism B (C. albicans ATCC 38247) | Minimum Inhibitory Concentration (MIC), organism F (S. aureus ATCC 33591) | Minimum Inhibitory Concentration (MIC), organism D (S. aureus ATCC 13709) | Minimum Inhibitory Concentration (MIC), organism G (S. pneumoniae ATCC 49619) | Minimum Inhibitory Concentration (MIC), organism D (S. pyogenes ATCC 4399) | Minimum Inhibitory Concentration (MIC), organism C (S. pneumoniae ATCC 51422)
Cn1cc(NC(=O)c2cc3ccccc3cn2)cc1C(=O)Nc1cc(-c2nc3ccc(Cl)cc3[nH]2)n(C)c1 [Compound A-7] | +++ (MIC ≦ 4 μg/mL) | +++ (MIC ≦ 4 pg/mL) | +++ (MIC ≦ 4 μg/mL) | +++ (MIC ≦ 4 pg/mL) | +++ (MIC ≦ 4 μg/mL) | +++ (MIC ≦ 4 pg/mL) | >32 µg/mL | +++ (MIC ≦ 4 μg/mL) | +++ (MIC ≦ 4 μg/mL) | +++ (MIC ≦ 4 μg/mL) | – | –
CN(C)CCCn1cc(NC(=O)c2ccc(F)cc2F)cc1C(=O)Nc1cc(-c2nc3ccccc3[nH]2)n(C)c1 [Compound A-16] | +++ (MIC ≦ 4 μg/mL) | +++ (MIC ≦ 4 pg/mL) | +++ (MIC ≦ 4 μg/mL) | +++ (MIC ≦ 4 pg/mL) | +++ (MIC ≦ 4 μg/mL) | +++ (MIC ≦ 4 pg/mL) | + (12 ≦ MIC ≦ 32 μg/mL) | +++ (MIC ≦ 4 μg/mL) | +++ (MIC ≦ 4 μg/mL) | +++ (MIC ≦ 4 μg/mL) | – | –
Cn1cc(NC(=O)c2cc(NC(=O)c3ccc(Cl)cc3F)cn2CCCN2CCC(F)(F)CC2)cc1-c1nc2cccnc2[nH]1 [Compound A-43] | +++ (MIC ≦ 4 μg/mL) | +++ (MIC ≦ 4 pg/mL) | +++ (MIC ≦ 4 μg/mL) | +++ (MIC ≦ 4 pg/mL) | ++ (4 < MIC < 12 μg/mL) | +++ (MIC ≦ 4 pg/mL) | >32 µg/mL | ++ (4 < MIC < 12 μg/mL) | ++ (4 < MIC < 12 μg/mL) | +++ (MIC ≦ 4 μg/mL) | ++ (4 < MIC < 12 μg/mL) | ++ (4 < MIC < 12 μg/mL)
CN(C)CCCn1cc(NC(=O)c2ccc(Cl)cc2F)cc1C(=O)Nc1cc(-c2nc3ccncc3[nH]2)n(C)c1 [Compound A-45] | +++ (MIC ≦ 4 μg/mL) | +++ (MIC ≦ 4 pg/mL) | +++ (MIC ≦ 4 μg/mL) | +++ (MIC ≦ 4 pg/mL) | +++ (MIC ≦ 4 μg/mL) | +++ (MIC ≦ 4 pg/mL) | ++ (4 < MIC < 12 μg/mL) | +++ (MIC ≦ 4 μg/mL) | +++ (MIC ≦ 4 μg/mL) | +++ (MIC ≦ 4 μg/mL) | – | –
Cn1cc(NC(=O)c2cc(NC(=O)c3sccc3Cl)cn2CCCO)cc1-c1nc2ccccc2[nH]1 [Compound A-48] | +++ (MIC ≦ 4 μg/mL) | +++ (MIC ≦ 4 pg/mL) | +++ (MIC ≦ 4 μg/mL) | +++ (MIC ≦ 4 pg/mL) | +++ (MIC ≦ 4 μg/mL) | +++ (MIC ≦ 4 pg/mL) | >32 µg/mL | +++ (MIC ≦ 4 μg/mL) | +++ (MIC ≦ 4 μg/mL) | +++ (MIC ≦ 4 μg/mL) | – | –
Cn1cc(NC(=O)c2cc(NC(=O)c3sccc3Cl)cn2CCCN2CCCCC2)cc1-c1nc2ccccc2[nH]1 [Compound A-49] | +++ (MIC ≦ 4 μg/mL) | +++ (MIC ≦ 4 pg/mL) | +++ (MIC ≦ 4 μg/mL) | +++ (MIC ≦ 4 pg/mL) | +++ (MIC ≦ 4 μg/mL) | +++ (MIC ≦ 4 pg/mL) | + (12 ≦ MIC ≦ 32 μg/mL) | +++ (MIC ≦ 4 μg/mL) | +++ (MIC ≦ 4 μg/mL) | +++ (MIC ≦ 4 μg/mL) | – | –
Cn1cc(NC(=O)c2cc(NC(=O)c3sccc3Cl)cn2CCCN2CCOCC2)cc1-c1nc2ccccc2[nH]1 [Compound A-50] | +++ (MIC ≦ 4 μg/mL) | +++ (MIC ≦ 4 pg/mL) | +++ (MIC ≦ 4 μg/mL) | +++ (MIC ≦ 4 pg/mL) | +++ (MIC ≦ 4 μg/mL) | +++ (MIC ≦ 4 pg/mL) | >32 µg/mL | +++ (MIC ≦ 4 μg/mL) | +++ (MIC ≦ 4 μg/mL) | +++ (MIC ≦ 4 μg/mL) | – | –
Cn1cc(NC(=O)c2cc(NC(=O)c3sccc3Cl)cn2CCCN2CCSCC2)cc1-c1nc2ccccc2[nH]1 [Compound A-51] | +++ (MIC ≦ 4 μg/mL) | +++ (MIC ≦ 4 pg/mL) | +++ (MIC ≦ 4 μg/mL) | +++ (MIC ≦ 4 pg/mL) | +++ (MIC ≦ 4 μg/mL) | +++ (MIC ≦ 4 pg/mL) | >32 µg/mL | +++ (MIC ≦ 4 μg/mL) | +++ (MIC ≦ 4 μg/mL) | +++ (MIC ≦ 4 μg/mL) | – | –
Cn1cc(NC(=O)c2cc(NC(=O)c3sccc3Cl)cn2CCCN2CCC(F)(F)CC2)cc1-c1nc2ccccc2[nH]1 [Compound A-54] | +++ (MIC ≦ 4 μg/mL) | +++ (MIC ≦ 4 pg/mL) | +++ (MIC ≦ 4 μg/mL) | +++ (MIC ≦ 4 pg/mL) | +++ (MIC ≦ 4 μg/mL) | +++ (MIC ≦ 4 pg/mL) | >32 µg/mL | +++ (MIC ≦ 4 μg/mL) | +++ (MIC ≦ 4 μg/mL) | +++ (MIC ≦ 4 μg/mL) | – | –
